Measured values reported in ChEMBL document CHEMBL4665541, “Search for new therapeutic options for the uncommon pathogen Mycobacterium chimaera: an open drug discovery approach” (Lancet Microbe, 2021).

Key:
Format in all cases: functional, organism-based
Parameters in all cases: conc 20 uM
[1] = system: Mycobacterium tuberculosis; test: (§1) Inhibition of mycobacterial growth using the resazurin microtitre cell viability assay (REMA), compounds at final concentration of 20 µM (2% v/v DMSO). Hits were classed as compounds that inhibited bacterial growth by 70% or more compared to drug-free controls.; conditions: H37Rv
[2] = system: Mycobacteroides abscessus; test: as §1; conditions: ATCC19977
[3] = system: Mycobacterium intracellulare subsp. chimaera; test: as §1; conditions: NCTC13781

| Substance | Survival [1] | Survival [2] | Survival [3] |
| --- | --- | --- | --- |
| MMV000011 | 22.4% | 118% | 10.1% |
| MMV000016 | 127% | 99.9% | 110% |
| MMV000023 | 84.7% | 109% | 92.8% |
| MMV000062 | 18.8% | 109% | 85.2% |
| MMV000063 | 90.6% | 120% | 99.8% |
| MMV000858 | 105% | 113% | 118% |
| MMV000907 | 97.1% | 111% | 98.3% |
| MMV001059 | 89.4% | 105% | 106% |
| MMV001493 | 93.6% | 128% | 106% |
| MMV001499 | 93.2% | 125% | 101% |
| MMV001561 | 91.3% | 103% | 103% |
| MMV001625 | 90.5% | 121% | 101% |
| MMV002529 | 92% | 120% | 99.8% |
| MMV002816 | 86.4% | 112% | 102% |
| MMV002817 | 90.6% | 118% | 100% |
| MMV003152 | 92.7% | 111% | 96.7% |
| MMV004168 | 90.2% | 114% | 99.7% |
| MMV006239 | 86.9% | 112% | 94.8% |
| MMV006372 | 101% | 111% | 98.4% |
| MMV006741 | 85.7% | 111% | 96.4% |
| MMV006833 | 93.7% | 126% | 115% |
| MMV006901 | 86.8% | 102% | 120% |

| Substance | Survival [1] | Survival [2] | Survival [3] |
| --- | --- | --- | --- |
| MMV007133 | 98.7% | 95% | 95.2% |
| MMV007471 | 89.1% | 119% | 101% |
| MMV007625 | 90.4% | 123% | 104% |
| MMV007638 | 100% | 123% | 113% |
| MMV007803 | 97.5% | 101% | 105% |
| MMV007920 | 98% | 102% | 99.7% |
| MMV008439 | 106% | 112% | 99.8% |
| MMV009054 | 98.7% | 105% | 100% |
| MMV009135 | 93.6% | 101% | 104% |
| MMV010545 | 91.4% | 111% | 86.4% |
| MMV010576 | 106% | 112% | 99% |
| MMV010764 | 88.8% | 101% | 94.1% |
| MMV011229 | 92.6% | 97.3% | 94% |
| MMV011511 | 88% | 112% | 104% |
| MMV011691 | 86.2% | 104% | 103% |
| MMV011765 | 89.2% | 108% | 70.9% |
| MMV011903 | 108% | 114% | 108% |
| MMV012074 | 53.4% | 110% | 88.4% |
| MMV016136 | 107% | 118% | 108% |
| MMV016838 | 78.9% | 109% | 91.7% |
| MMV019087 | 74.9% | 111% | 92.7% |
| MMV019189 | 77% | 97.2% | 97.4% |

| Substance | Survival [1] | Survival [2] | Survival [3] |
| --- | --- | --- | --- |
| MMV019234 | 78.1% | 125% | 92.9% |
| MMV019551 | 77.8% | 103% | 90.1% |
| MMV019721 | 104% | 121% | 114% |
| MMV019742 | 96% | 103% | 97.5% |
| MMV019790 | 90.2% | 107% | 102% |
| MMV019807 | 97.4% | 116% | 118% |
| MMV019838 | 84.2% | 124% | 81.2% |
| MMV019993 | 97% | 95.9% | 98.9% |
| MMV020081 | 89.4% | 118% | 87.7% |
| MMV020120 | 94.3% | 122% | 104% |
| MMV020136 | 88.7% | 129% | 88.5% |
| MMV020152 | 78.2% | 118% | 91.2% |
| MMV020165 | 82.1% | 106% | 98.7% |
| MMV020289 | 86.3% | 113% | 103% |
| MMV020291 | 90.7% | 121% | 103% |
| MMV020320 | 42.2% | 113% | 98.9% |
| MMV020321 | 90.7% | 115% | 91.7% |
| MMV020388 | 88.5% | 113% | 102% |
| MMV020391 | 95.4% | 108% | 91.8% |
| MMV020512 | 104% | 116% | 109% |
| MMV020517 | 79.9% | 123% | 94% |
| MMV020520 | 104% | 125% | 113% |

| Substance | Survival [1] | Survival [2] | Survival [3] |
| --- | --- | --- | --- |
| MMV020537 | 94.1% | 105% | 62.7% |
| MMV020591 | 106% | 113% | 112% |
| MMV020623 | 107% | 118% | 111% |
| MMV020670 | 99.7% | 110% | 93% |
| MMV020710 | 86.9% | 123% | 95.7% |
| MMV020982 | 84.3% | 124% | 103% |
| MMV021013 | 100% | 108% | 88% |
| MMV021057 | 96.6% | 126% | 110% |
| MMV021375 | 89.6% | 111% | 93.8% |
| MMV021660 | 67.5% | 102% | 107% |
| MMV022029 | 90.8% | 118% | 99.1% |
| MMV022236 | 109% | 119% | 109% |
| MMV022478 | 3.81% | 13.3% | 3.7% |
| MMV023183 | 88.3% | 119% | 104% |
| MMV023227 | 85.3% | 106% | 87.2% |
| MMV023233 | 89.1% | 106% | 90.8% |
| MMV023370 | 102% | 109% | 107% |
| MMV023388 | 99.3% | 90.4% | 98% |
| MMV023860 | 84.6% | 117% | 90.3% |
| MMV023949 | 92.7% | 116% | 90.5% |
| MMV023953 | 100% | 104% | 93.7% |
| MMV023969 | 19.5% | 96% | 92.8% |

| Substance | Survival [1] | Survival [2] | Survival [3] |
| --- | --- | --- | --- |
| MMV023985 | 85.1% | 101% | 109% |
| MMV024035 | 85.9% | 117% | 98.3% |
| MMV024101 | 99.6% | 95.8% | 100% |
| MMV024114 | 126% | 121% | 106% |
| MMV024195 | 74.2% | 103% | 94.1% |
| MMV024311 | 74.4% | 96.6% | 106% |
| MMV024397 | 88.8% | 118% | 98.2% |
| MMV024406 | 89% | 114% | 100% |
| MMV024443 | 102% | 94.5% | 101% |
| MMV024829 | 88.9% | 119% | 103% |
| MMV024937 | 88.4% | 103% | 111% |
| MMV026020 | 102% | 113% | 105% |
| MMV026313 | 82.9% | 100% | 86.2% |
| MMV026356 | 101% | 107% | 89.7% |
| MMV026468 | 95.9% | 105% | 96.1% |
| MMV026490 | 88.9% | 115% | 104% |
| MMV026550 | 88.2% | 111% | 98.7% |
| MMV028694 | 88.7% | 113% | 91.4% |
| MMV030734 | 82.6% | 111% | 89.4% |
| MMV031011 | 99.4% | 109% | 89.4% |
| MMV032967 | 92.6% | 104% | 87.8% |
